pEC50, pIC50, pKd, pKi: −log10 of the molar value.
Tests used:
[1] = Half life in ICR mouse at 30 mg/kg, IG by LC/MS/MS analysis; format: ADME, organism-based; settings: in vivo, po
[2] = Cmax in ICR mouse at 30 mg/kg, IG by LC/MS/MS analysis; format: ADME, organism-based; set-up: dose 30 mg/kg, route ig; settings: in vivo, po
[3] = Metabolic stability in human liver microsomes assessed as compound remaining after 60 mins; format: ADME, Microsome; settings: read-out: Stability
[4] = AUC in C57BL/6 mouse at 10 mg/kg, po by LC/MS-MS analysis; format: ADME, organism-based; set-up: dose 10 mg/kg, route po; settings: in vivo
[5] = Cmax in C57BL/6 mouse at 10 mg/kg, po by LC/MS-MS analysis; format: ADME, organism-based; set-up: dose 10 mg/kg, route po; settings: in vivo
[6] = target: T1, Tyrosine-protein kinase JAK2 (Homo sapiens, UniProt O60674); assay: Inhibition of JAK2 (unknown origin)
T1 sequence (O60674 whole entry): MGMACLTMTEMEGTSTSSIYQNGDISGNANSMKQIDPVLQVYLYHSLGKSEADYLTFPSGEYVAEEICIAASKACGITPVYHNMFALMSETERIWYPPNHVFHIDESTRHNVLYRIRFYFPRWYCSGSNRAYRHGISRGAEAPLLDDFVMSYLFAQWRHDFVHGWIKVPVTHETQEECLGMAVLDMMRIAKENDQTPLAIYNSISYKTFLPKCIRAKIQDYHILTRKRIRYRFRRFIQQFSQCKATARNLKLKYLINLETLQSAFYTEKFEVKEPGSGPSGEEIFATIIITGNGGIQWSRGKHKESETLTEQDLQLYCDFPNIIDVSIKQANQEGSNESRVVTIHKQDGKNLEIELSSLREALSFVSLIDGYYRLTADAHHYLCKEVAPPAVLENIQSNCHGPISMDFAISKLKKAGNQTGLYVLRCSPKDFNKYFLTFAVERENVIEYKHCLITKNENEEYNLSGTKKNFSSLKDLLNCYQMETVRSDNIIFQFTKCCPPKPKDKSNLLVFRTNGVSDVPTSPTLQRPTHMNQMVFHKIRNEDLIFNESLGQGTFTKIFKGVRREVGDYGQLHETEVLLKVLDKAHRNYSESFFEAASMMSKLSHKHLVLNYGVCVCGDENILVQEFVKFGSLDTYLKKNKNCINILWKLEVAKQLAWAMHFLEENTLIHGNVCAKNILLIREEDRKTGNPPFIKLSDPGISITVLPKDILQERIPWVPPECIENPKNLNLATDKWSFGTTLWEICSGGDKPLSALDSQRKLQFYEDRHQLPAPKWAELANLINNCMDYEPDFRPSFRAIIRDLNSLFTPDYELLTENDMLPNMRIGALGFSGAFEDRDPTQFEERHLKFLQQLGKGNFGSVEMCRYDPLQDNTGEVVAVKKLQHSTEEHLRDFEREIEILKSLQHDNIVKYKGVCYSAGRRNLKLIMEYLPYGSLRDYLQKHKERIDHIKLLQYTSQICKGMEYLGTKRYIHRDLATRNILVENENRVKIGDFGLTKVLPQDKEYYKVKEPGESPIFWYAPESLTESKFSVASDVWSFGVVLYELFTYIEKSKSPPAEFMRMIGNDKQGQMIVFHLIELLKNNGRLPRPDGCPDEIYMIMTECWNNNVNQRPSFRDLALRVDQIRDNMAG

[7] = target: T2, Non-receptor tyrosine-protein kinase TYK2 (Homo sapiens, UniProt P29597); assay: Inhibition of TYK2 JH2 (unknown origin)
T2 sequence (P29597 whole entry): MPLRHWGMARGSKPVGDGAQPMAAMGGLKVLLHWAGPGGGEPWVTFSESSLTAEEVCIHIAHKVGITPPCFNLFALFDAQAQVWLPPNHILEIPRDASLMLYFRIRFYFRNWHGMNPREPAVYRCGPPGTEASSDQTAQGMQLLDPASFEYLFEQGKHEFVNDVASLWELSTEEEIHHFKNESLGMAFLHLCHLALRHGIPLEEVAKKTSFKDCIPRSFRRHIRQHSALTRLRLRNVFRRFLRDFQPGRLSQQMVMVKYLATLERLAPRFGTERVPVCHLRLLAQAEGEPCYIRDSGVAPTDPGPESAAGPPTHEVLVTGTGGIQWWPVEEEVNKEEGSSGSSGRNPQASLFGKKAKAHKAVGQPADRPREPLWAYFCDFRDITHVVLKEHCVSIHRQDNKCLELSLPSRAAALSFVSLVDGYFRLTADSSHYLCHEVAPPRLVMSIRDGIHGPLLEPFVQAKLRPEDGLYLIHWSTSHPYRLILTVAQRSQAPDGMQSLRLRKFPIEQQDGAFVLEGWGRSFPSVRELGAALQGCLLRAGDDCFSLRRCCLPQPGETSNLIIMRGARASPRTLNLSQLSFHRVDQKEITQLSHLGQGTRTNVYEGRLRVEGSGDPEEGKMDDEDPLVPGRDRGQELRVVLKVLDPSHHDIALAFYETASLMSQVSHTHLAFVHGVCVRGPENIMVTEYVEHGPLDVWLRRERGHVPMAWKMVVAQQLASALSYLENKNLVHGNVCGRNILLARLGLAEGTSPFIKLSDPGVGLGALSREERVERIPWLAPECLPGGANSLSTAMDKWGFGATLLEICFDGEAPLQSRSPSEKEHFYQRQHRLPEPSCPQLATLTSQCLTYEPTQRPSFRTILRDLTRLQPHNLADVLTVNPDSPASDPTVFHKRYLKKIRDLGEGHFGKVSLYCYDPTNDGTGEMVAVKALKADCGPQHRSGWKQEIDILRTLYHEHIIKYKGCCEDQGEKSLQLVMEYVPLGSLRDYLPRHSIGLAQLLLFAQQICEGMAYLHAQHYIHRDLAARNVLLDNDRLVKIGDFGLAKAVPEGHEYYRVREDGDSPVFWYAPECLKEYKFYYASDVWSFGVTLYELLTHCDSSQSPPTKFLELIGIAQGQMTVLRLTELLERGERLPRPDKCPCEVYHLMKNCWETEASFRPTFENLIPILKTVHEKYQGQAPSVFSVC

[8] = target: T2, Non-receptor tyrosine-protein kinase TYK2; assay: Inhibition of TYK2 JH1 (unknown origin)
[9] = target: T1, Tyrosine-protein kinase JAK2; assay: Inhibition of JAK2 in human TF-1 cells assessed as reduction of STAT5 phosphorylation by ELISA assay; format: cell-based
JAK1/TYK2 = JAK1/TYK2 (Homo sapiens, UniProt P23458+P29597); assay: Inhibition of JAK2/TYK2 in HEK293T cells co-expressing luciferase gene under control of ISRE assessed as reduction in IFNalpha expression incubated for 6 hrs by one-glo reagent based luciferase reporter gene assay; format: cell-based
JAK1/TYK2, sequence (P23458 whole entry): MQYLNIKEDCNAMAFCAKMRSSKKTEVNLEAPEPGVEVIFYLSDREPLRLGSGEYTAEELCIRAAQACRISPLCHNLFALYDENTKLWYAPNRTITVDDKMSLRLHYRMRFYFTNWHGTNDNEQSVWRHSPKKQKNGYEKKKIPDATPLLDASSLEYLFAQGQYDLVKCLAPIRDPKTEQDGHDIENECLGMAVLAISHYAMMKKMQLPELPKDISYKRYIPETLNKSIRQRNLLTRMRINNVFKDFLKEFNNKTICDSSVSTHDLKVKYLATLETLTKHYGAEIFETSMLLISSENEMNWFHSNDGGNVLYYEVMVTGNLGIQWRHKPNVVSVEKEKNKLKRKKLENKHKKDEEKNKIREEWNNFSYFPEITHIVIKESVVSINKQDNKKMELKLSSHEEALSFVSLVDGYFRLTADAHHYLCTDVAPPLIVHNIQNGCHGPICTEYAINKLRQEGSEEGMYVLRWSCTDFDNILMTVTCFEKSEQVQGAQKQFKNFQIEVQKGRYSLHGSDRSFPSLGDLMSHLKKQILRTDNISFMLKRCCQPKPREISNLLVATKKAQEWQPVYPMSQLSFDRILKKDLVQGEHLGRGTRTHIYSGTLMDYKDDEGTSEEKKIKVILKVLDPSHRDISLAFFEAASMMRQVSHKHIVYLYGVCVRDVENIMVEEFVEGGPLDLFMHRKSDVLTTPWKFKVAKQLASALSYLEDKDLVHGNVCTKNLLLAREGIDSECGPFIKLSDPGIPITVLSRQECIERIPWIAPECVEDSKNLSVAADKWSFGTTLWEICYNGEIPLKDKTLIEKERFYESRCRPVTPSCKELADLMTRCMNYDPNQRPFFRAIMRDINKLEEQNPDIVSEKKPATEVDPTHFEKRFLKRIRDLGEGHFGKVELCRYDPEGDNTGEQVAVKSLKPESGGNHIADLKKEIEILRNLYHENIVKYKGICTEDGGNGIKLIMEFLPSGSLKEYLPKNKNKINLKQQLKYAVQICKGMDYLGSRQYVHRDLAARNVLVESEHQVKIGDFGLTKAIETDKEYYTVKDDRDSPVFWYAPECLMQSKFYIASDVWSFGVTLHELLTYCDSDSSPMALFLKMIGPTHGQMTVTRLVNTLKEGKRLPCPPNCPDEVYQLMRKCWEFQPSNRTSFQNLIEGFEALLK
JAK1/TYK2, sequence (P29597 whole entry): as the sequence (P29597 whole entry) above

JAK2/TYK2 [10] = target: T3, JAK2/TYK2 (Homo sapiens, UniProt O60674+P29597); assay: Inhibition of JAK2/TYK2 in HEK-Blue IL-23 cells assessed as reduction in SEAP reporter gene expression incubated for 21 hrs by Quanti-blue assay; format: cell-based
T3 sequence (O60674 whole entry): as the sequence (O60674 whole entry) above
T3 sequence (P29597 whole entry): as the sequence (P29597 whole entry) above

[11] = Half life in C57BL/6 mouse at 10 mg/kg, po by LC/MS-MS analysis; format: ADME, organism-based; settings: in vivo
[12] = target: T4, Tyrosine-protein kinase JAK3 (Homo sapiens, UniProt P52333); assay: Inhibition of JAK3 (unknown origin)
T4 sequence (P52333 whole entry): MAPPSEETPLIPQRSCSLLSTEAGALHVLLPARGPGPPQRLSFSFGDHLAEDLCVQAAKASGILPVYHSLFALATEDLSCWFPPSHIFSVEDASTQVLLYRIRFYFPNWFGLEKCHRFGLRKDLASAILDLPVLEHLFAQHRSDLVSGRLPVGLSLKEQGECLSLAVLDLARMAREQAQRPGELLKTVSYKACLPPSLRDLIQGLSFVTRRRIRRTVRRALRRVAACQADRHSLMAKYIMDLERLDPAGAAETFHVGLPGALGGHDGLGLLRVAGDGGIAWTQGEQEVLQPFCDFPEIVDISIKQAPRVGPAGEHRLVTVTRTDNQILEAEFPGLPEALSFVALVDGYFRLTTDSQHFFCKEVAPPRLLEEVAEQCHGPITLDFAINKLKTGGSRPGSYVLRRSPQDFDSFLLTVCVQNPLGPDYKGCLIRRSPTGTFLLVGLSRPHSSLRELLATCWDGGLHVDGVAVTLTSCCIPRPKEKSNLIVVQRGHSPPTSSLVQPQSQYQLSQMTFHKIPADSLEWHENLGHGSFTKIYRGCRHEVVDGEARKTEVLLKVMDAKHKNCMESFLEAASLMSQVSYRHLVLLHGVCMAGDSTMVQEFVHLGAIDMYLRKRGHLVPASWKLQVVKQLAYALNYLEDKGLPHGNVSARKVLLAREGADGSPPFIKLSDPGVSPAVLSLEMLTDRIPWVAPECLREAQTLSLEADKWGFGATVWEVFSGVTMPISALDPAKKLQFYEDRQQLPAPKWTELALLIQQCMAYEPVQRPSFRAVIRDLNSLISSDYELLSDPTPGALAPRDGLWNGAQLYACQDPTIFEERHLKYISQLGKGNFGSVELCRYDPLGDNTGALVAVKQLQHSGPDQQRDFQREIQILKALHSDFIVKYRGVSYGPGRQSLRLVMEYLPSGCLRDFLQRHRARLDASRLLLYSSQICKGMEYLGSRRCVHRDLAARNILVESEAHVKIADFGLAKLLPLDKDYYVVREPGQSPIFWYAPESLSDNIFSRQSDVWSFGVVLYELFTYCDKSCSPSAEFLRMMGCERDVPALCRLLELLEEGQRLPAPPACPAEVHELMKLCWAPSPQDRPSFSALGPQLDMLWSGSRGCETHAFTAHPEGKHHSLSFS

[13] = Oral bioavailability in C57BL/6 mouse at 10 mg/kg by LC/MS-MS analysis; format: ADME, organism-based; settings: in vivo
[14] = target: T2, Non-receptor tyrosine-protein kinase TYK2; assay: Inhibition of TYK2 signal transduction pathway in human PBMC cells assessed as IFNalpha induced p-STAT5 level; format: cell-based
[15] = target: T2, Non-receptor tyrosine-protein kinase TYK2; assay: Binding affinity to TYK2 JH2 (unknown origin)
[16] = target: T5, Tyrosine-protein kinase JAK1 (Homo sapiens, UniProt P23458); assay: Inhibition of JAK1 (unknown origin)
T5 sequence (P23458 whole entry): as the sequence (P23458 whole entry) above

Janus Kinase (JAK) = Janus Kinase (JAK) (Homo sapiens, UniProt P52333+P23458+O60674+P29597); assay: Inhibition of JAK JH1 (unknown origin); format: protein assay
[17] = Inhibition of IFNalpha induced STAT phosphorylation in HEK293 cells by Western blotting analysis; format: cell-based; settings: Homo sapiens
[18] = Inhibition of IL-2 induced STAT phosphorylation in HEK293 cells by Western blotting analysis; format: cell-based; settings: Homo sapiens
[19] = Inhibition of IFN-gamma induced STAT phosphorylation in HEK293 cells by Western blotting analysis; format: cell-based; settings: Homo sapiens
[20] = Inhibition of IL-23 induced STAT phosphorylation in HEK293 cells by Western blotting analysis; format: cell-based; settings: Homo sapiens
[21] = target: T2, Non-receptor tyrosine-protein kinase TYK2; assay: Inhibition of TYK2 signal transduction pathway in human TF-1 cells assessed as reduction in GM-CSF induced p-STAT5 level; format: cell-based
JAK2/TYK2 [22] = target: T3, JAK2/TYK2; assay: Inhibition of JAK2/TYK2 signal transduction pathway in human NK92 cells assessed as IL-12 induced STAT4 phosphorylation; format: cell-based
[23] = target: T2, Non-receptor tyrosine-protein kinase TYK2; assay: Inhibition of TYK2 JH2 (561 to 860 residues) (unknown origin) by HTRF assay
[24] = target: T5, Tyrosine-protein kinase JAK1; assay: Inhibition of JAK1 JH2 (unknown origin)
[25] = target: T5, Tyrosine-protein kinase JAK1; assay: Inhibition of JAK1 (unknown origin) using ULight - JAK (Tyr1023) substrate incubated for 60 mins in presence of ATP by envision plate reader based analysis
[26] = target: T4, Tyrosine-protein kinase JAK3; assay: Inhibition of JAK3 (unknown origin) using ULight - JAK (Tyr1023) substrate incubated for 60 mins in presence of ATP by envision plate reader based analysis
[27] = target: T2, Non-receptor tyrosine-protein kinase TYK2; assay: Binding affinity to His-tagged human recombinant TYK2 JH2 (556 to 871 residues) incubated for 10 hrs by microplate reader based analysis
JAK2/TYK2 [28] = target: T3, JAK2/TYK2; assay: Inhibition of JAK2/TYK2 signal transduction pathway in human PBMC cells assessed as IL-23 induced p-STAT4 level by AlphaLISA assay; format: cell-based
JAK2/TYK2 [29] = target: T3, JAK2/TYK2; assay: Inhibition of JAK2/TYK2 signal transduction pathway in human PBMC cells assessed as IL-12 induced p-STAT4 level by AlphaLISA assay; format: cell-based
[30] = target: T2, Non-receptor tyrosine-protein kinase TYK2; assay: Inhibition of TYK2 in HEK-Blue IL-23 cells assessed as reduction in SEAP reporter gene expression by Quanti-blue assay; format: cell-based

With [2H]C([2H])([2H])NC(=O)c1nnc(NC(=O)C2CC2)cc1Nc1cccc(-c2ncc(-c3cccnc3C(F)(F)F)cn2)c1OC the half-life [1] was 6.26 h, the Cmax [2] was 12500 ng/mL and the remaining at 1 h [3] was 100%.

In the case of CO[C@@]1(c2cc(C)cc(-n3cc(C4CC4)c4cnc(NC(C)=O)cc43)n2)CCOC1, the AUC [4] was 10900 ng·h/mL, the Cmax [5] was 2060 ng/mL and the pIC50 [6] was less than 5.00. For the same molecule, the pIC50 [7] was 9.22 and the pIC50 [8] was less than 5.00.

In the case of [2H]C([2H])([2H])Nc1cc(Nc2cc(Cl)cn(-c3ccccn3)c2=O)nn2c(C(=O)N[C@@H]3C[C@@H]3F)cnc12, the pEC50 [9] was less than 5.00, the pEC50 (JAK1/TYK2) was greater than 8.00 and the pEC50 (JAK2/TYK2 [10]) was greater than 9.00.

Work on CNC(=O)c1cnc2cc1Nc1cc(cc(-c3ccn(C)n3)c1OC)CCOCc1nc(ccc1C)N2 yielded a half-life [11] of 2.26 h, a pIC50 [12] of less than 5.00 and a bioavailability [13] of 148%. For the same molecule, the pIC50 [14] was no less than 7.30, the pKd [15] was greater than 9.00 and the pIC50 [6] was less than 5.00. For the same molecule, the pIC50 [16] was less than 5.00 and the pIC50 [8] was less than 5.00.

With [2H]C([2H])([2H])NC(=O)c1nnc2cc1Nc1cc(cc(-c3ccn(C)n3)c1OC)CCOCc1cccc(n1)N2 the half-life [11] was 3.01 h, the pIC50 [12] was less than 5.00 and the bioavailability [13] was 147%. It also gave a pIC50 [14] of no less than 7.30, a pKd [15] greater than 9.00 and a pIC50 [6] of less than 5.00. The pIC50 [16] was less than 5.00 and the pIC50 [8] was less than 5.00.

For COc1cccc(-n2[nH]c(=O)c3cnc(Nc4cc(C)nc(C)n4)cc32)c1F, the IC50 (Janus Kinase (JAK)) was greater than 90000 nM, the pIC50 [17] was greater than 5.00 and the pIC50 [18] was less than 4.05. It also gave a pIC50 [19] of less than 4.05 and a pIC50 [20] greater than 5.00.

Work on CO[C@@]1(c2cc(C)cc(-n3cc(C4CCN(C)CC4)c4cnc(NC(N)=O)cc43)n2)CCOC1 yielded an AUC [4] of 16600 ng·h/mL, a Cmax [5] of 2740 ng/mL and a pIC50 [12] of less than 5.00. It also gave a pIC50 [6] of less than 5.00, a pIC50 [16] of less than 5.00 and a pIC50 [7] of 8.68. It also gave a pIC50 [8] of less than 5.00.

For N#Cc1ccc(-n2[nH]c(=O)c3cnc(Nc4ccc(F)cn4)cc32)cc1Cl, the IC50 (Janus Kinase (JAK)) was greater than 90000 nM, the pIC50 [17] was greater than 5.00 and the pIC50 [18] was less than 4.05. The pIC50 [19] was less than 4.05 and the pIC50 [20] was greater than 5.00.

Molecule COCCOc1cc(Nc2cc(NC(C)=O)ncc2-c2ccccn2)nc(S(C)(=O)=O)c1 has a pIC50 [21] of less than 5.00, a pIC50 (JAK2/TYK2 [22]) of 8.92 and a pIC50 [23] of 10.74. For the same molecule, the pIC50 [24] was 8.92.

With Cn1cc(-c2cn3ncnc3c(-c3ccn([C@]4(CC#N)C[C@@H](C#N)C4)c3)n2)cn1 the pIC50 [25] was less than 5.30 and the pIC50 [26] was less than 5.30.

In the case of CO[C@@]1(c2cc(C)cc(-c3cc(C)n4cnc(NC(N)=O)cc34)n2)CCOC1, the pKi [27] was 8.70, the pIC50 (JAK2/TYK2 [28]) was 8.70 and the pIC50 (JAK2/TYK2 [29]) was 8.10.

[2H]C([2H])([2H])NC(=O)c1nnc(NC(=O)[C@H]2CC23CC3)cc1Nc1ncc(OCCOC)cc1S(C)(=O)=O gave a pIC50 [30] greater than 9.00.

CO[C@@]1(c2cc(C)cc(-n3nc(-c4cnn(C)c4)c4cnc(NC(N)=O)cc43)n2)CCOC1 showed a pKi [27] of 8.70, a pIC50 (JAK2/TYK2 [28]) of 8.52 and a pIC50 (JAK2/TYK2 [29]) of 8.05.

From ChEMBL document CHEMBL5380830, “Development and Therapeutic Implications of Tyrosine Kinase 2 Inhibitors” (J Med Chem, 2023)
